Measurements reported in US10221177B2 (HYDRA BIOSCIENCES, INC., priority 2014, dated 2019).

target: human TRPA1 (Homo sapiens (Human), UniProt O75762); assay: In vitro inhibition of human TRPA1, whole cell patch configuration; assay type: cell-based; conditions: current activation 10 μM AITC, tested concentrations 320 pM to 3.2 μM, read-out: hTRPA1 IC50
Procedure, shortened: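 Whole-cell patch clamp, bath 150 mM NaCl, 10 mM HEPES, 1 mM EGTA, 3 mM MgCl2, pH 7.4 (sometimes 2 mM CaCl2, 1 mM MgCl2). Currents recorded continuously at −60 mV or by 400 ms ramps from −40 mV holding every 4 s; inward/outward currents taken at −80/80 mV, with controlled-temperature focal perfusion.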

Chain of human TRPA1 (O75762 whole entry, the tested form may be a part): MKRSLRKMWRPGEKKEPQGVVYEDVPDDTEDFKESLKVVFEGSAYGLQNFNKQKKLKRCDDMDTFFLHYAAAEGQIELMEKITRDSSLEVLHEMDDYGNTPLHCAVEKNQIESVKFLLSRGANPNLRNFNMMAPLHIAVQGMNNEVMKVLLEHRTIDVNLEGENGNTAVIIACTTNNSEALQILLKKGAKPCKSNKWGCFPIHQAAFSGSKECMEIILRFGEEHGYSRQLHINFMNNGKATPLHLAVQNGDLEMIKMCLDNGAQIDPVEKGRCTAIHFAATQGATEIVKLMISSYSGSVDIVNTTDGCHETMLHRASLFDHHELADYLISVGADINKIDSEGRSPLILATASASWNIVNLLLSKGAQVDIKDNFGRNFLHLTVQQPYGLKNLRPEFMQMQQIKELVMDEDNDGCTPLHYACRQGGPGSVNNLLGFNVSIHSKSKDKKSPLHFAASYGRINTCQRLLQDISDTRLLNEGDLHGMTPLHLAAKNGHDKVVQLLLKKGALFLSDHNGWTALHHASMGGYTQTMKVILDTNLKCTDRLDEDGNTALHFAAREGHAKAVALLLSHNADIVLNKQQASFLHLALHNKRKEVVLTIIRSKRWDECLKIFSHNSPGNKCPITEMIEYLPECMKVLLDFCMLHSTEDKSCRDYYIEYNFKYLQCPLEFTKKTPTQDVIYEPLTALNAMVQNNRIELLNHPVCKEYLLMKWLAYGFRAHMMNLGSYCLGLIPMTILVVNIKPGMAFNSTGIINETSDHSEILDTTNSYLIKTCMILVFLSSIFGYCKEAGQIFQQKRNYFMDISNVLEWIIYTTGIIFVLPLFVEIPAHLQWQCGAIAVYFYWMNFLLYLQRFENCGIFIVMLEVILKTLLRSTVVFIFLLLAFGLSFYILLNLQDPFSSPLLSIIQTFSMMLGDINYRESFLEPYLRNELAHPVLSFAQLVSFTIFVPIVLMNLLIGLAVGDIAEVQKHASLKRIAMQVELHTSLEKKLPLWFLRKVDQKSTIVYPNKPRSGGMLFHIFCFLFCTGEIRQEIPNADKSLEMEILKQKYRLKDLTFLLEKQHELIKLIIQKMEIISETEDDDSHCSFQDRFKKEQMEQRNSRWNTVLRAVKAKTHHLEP

IC50 | SMILES
18 nM | C[C@@H](C(=O)Nc1cccc(-c2cnc(C(F)(F)F)nc2)n1)n1cnc2c1c(=O)n(Cc1ccon1)c(=O)n2C [Compound 117, (S)-2-(1-(isoxazol-3-ylmethyl)-3-methyl-2,6-dioxo-2,3-dihydro-1H-purin-7(6H)-yl)-N-(6-(2-(trifluoromethyl)pyrimidin-5-yl)pyridin-2-yl)propanamide]
17 nM | Cc1cc(Cn2c(=O)c3c(ncn3[C@@H](C)C(=O)Nc3cncc(-c4ccc(C(F)(F)F)nc4)n3)n(C)c2=O)no1 [Compound 118, (S)-2-(3-methyl-1-((5-methylisoxazol-3-yl)methyl)-2,6-dioxo-2,3-dihydro-1H-purin-7(6H)-yl)-N-(6-(6-(trifluoromethyl)pyridin-3-yl)pyrazin-2-yl)propanamide]
28 nM | C[C@@H](C(=O)Nc1cncc(-c2ccc(C(F)(F)F)nc2)n1)n1cnc2c1c(=O)n(Cc1ccon1)c(=O)n2C [Compound 119, (S)-2-(1-(isoxazol-3-ylmethyl)-3-methyl-2,6-dioxo-2,3-dihydro-1H-purin-7(6H)-yl)-N-(6-(6-(trifluoromethyl)pyridin-3-yl)pyrazin-2-yl)propanamide]
26 nM | C[C@@H](C(=O)Nc1cncc(-c2cnc(C(F)(F)F)nc2)n1)n1cnc2c1c(=O)n(Cc1ccon1)c(=O)n2C [Compound 120, (S)-2-(1-(isoxazol-3-ylmethyl)-3-methyl-2,6-dioxo-2,3-dihydro-1H-purin-7(6H)-yl)-N-(6-(2-(trifluoromethyl)pyrimidin-5-yl)pyrazin-2-yl)propanamide]
1 nM | COc1ncc(-c2cccc(NC(=O)[C@H](C)n3cnc4c3c(=O)n(Cc3cc(C)on3)c(=O)n4C)n2)cc1C(F)(F)F [Compound 121, (S)—N-(6′-methoxy-5′-(trifluoromethyl)-[2,3′-bipyridin]-6-yl)-2-(3-methyl-1-((5-methylisoxazol-3-yl)methyl)-2,6-dioxo-2,3-dihydro-1H-purin-7(6H)-yl)propanamide]
1 nM | CCOc1ncc(-c2cccc(NC(=O)[C@H](C)n3cnc4c3c(=O)n(Cc3cc(C)on3)c(=O)n4C)n2)cc1C(F)(F)F [Compound 122, (S)—N-(6′-ethoxy-5′-(trifluoromethyl)-[2,3′-bipyridin]-6-yl)-2-(3-methyl-1-((5-methylisoxazol-3-yl)methyl)-2,6-dioxo-2,3-dihydro-1H-purin-7(6H)-yl)propanamide]
2 nM | Cc1cc(Cn2c(=O)c3c(ncn3[C@@H](C)C(=O)Nc3cccc(-c4cnc(Cl)c(C(F)(F)F)c4)n3)n(C)c2=O)no1 [Compound 123, (S)—N-(6′-chloro-5′-(trifluoromethyl)-[2,3′-bipyridin]-6-yl)-2-(3-methyl-1-((5-methylisoxazol-3-yl)methyl)-2,6-dioxo-2,3-dihydro-1H-purin-7(6H)-yl)propanamide]
1 nM | CCC(=O)Cn1c(=O)c2c(ncn2[C@@H](C)C(=O)Nc2cccc(-c3cnc(OC)c(C(F)(F)F)c3)n2)n(C)c1=O [Compound 124, (S)—N-(6′-methoxy-5′-(trifluoromethyl)-[2,3′-bipyridin]-6-yl)-2-(3-methyl-2,6-dioxo-1-(2-oxobutyl)-2,3-dihydro-1H-purin-7(6H)-yl)propanamide]
1 nM | CCOc1ncc(-c2cccc(NC(=O)[C@H](C)n3cnc4c3c(=O)n(CC(=O)CC)c(=O)n4C)n2)cc1C(F)(F)F [Compound 125, (S)—N-(6′-ethoxy-5′-(trifluoromethyl)-[2,3′-bipyridin]-6-yl)-2-(3-methyl-2,6-dioxo-1-(2-oxobutyl)-2,3-dihydro-1H-purin-7(6H)-yl)propanamide]
1 nM | Cc1cc(Cn2c(=O)c3c(ncn3[C@@H](C)C(=O)Nc3cccc(-c4cnc(C)c(C(F)(F)F)c4)n3)n(C)c2=O)no1 [Compound 126, (S)-2-(3-methyl-1-((5-methylisoxazol-3-yl)methyl)-2,6-dioxo-2,3-dihydro-1H-purin-7(6H)-yl)-N-(6′-methyl-5′-(trifluoromethyl)-[2,3′-bipyridin]-6-yl)propanamide]
25 nM | Cc1cc(Cn2c(=O)c3c(ncn3[C@@H](C)C(=O)Nc3cccc(-c4cnc(C)c(C)c4)n3)n(C)c2=O)no1 [Compound 127, (S)—N-(5′,6′-dimethyl-[2,3′-bipyridin]-6-yl)-2-(3-methyl-1-((5-methylisoxazol-3-yl)methyl)-2,6-dioxo-2,3-dihydro-1H-purin-7(6H)-yl)propanamide]
4 nM | Cc1cc(Cn2c(=O)c3c(ncn3[C@@H](C)C(=O)Nc3cncc(-c4cnc(C)c(C(F)(F)F)c4)n3)n(C)c2=O)no1 [Compound 128, (S)-2-(3-methyl-1-((5-methylisoxazol-3-yl)methyl)-2,6-dioxo-2,3-dihydro-1H-purin-7(6H)-yl)-N-(6-(6-methyl-5-(trifluoromethyl)pyridin-3-yl)pyrazin-2-yl)propanamide]
2 nM | Cc1cc(Cn2c(=O)c3c(ncn3[C@@H](C)C(=O)Nc3cccc(-c4cnc(C(F)(F)F)c(C)c4)n3)n(C)c2=O)no1 [Compound 129, (S)-2-(3-methyl-1-((5-methylisoxazol-3-yl)methyl)-2,6-dioxo-2,3-dihydro-1H-purin-7(6H)-yl)-N-(5′-methyl-6′-(trifluoromethyl)-[2,3′-bipyridin]-6-yl)propanamide]
8 nM | Cc1cc(Cn2c(=O)c3c(ncn3[C@@H](C)C(=O)Nc3cncc(-c4cnc(C(F)(F)F)c(C)c4)n3)n(C)c2=O)no1 [Compound 130, (S)-2-(3-methyl-1-((5-methylisoxazol-3-yl)methyl)-2,6-dioxo-2,3-dihydro-1H-purin-7(6H)-yl)-N-(6-(5-methyl-6-(trifluoromethyl)pyridin-3-yl)pyrazin-2-yl)propanamide]
6 nM | Cc1noc(Cn2c(=O)c3c(ncn3[C@@H](C)C(=O)Nc3cccc(-c4cnc(C(F)(F)F)c(C)c4)n3)n(C)c2=O)n1 [Compound 131, (S)-2-(3-methyl-1-((3-methyl-1,2,4-oxadiazol-5-yl)methyl)-2,6-dioxo-2,3-dihydro-1H-purin-7(6H)-yl)-N-(5′-methyl-6′-(trifluoromethyl)-[2,3′-bipyridin]-6-yl)propanamide]
9 nM | Cc1noc(Cn2c(=O)c3c(ncn3[C@@H](C)C(=O)Nc3cncc(-c4cnc(C)c(C(F)(F)F)c4)n3)n(C)c2=O)n1 [Compound 132, (S)-2-(3-methyl-1-((3-methyl-1,2,4-oxadiazol-5-yl)methyl)-2,6-dioxo-2,3-dihydro-1H-purin-7(6H)-yl)-N-(6-(6-methyl-5-(trifluoromethyl)pyridin-3-yl)pyrazin-2-yl)propanamide]
9 nM | Cc1noc(Cn2c(=O)c3c(ncn3[C@@H](C)C(=O)Nc3cncc(-c4cnc(C(F)(F)F)c(C)c4)n3)n(C)c2=O)n1 [Compound 133, (S)-2-(3-methyl-1-((3-methyl-1,2,4-oxadiazol-5-yl)methyl)-2,6-dioxo-2,3-dihydro-1H-purin-7(6H)-yl)-N-(6-(5-methyl-6-(trifluoromethyl)pyridin-3-yl)pyrazin-2-yl)propanamide]
3 nM | Cc1ncc(-c2cccc(NC(=O)[C@H](C)n3cnc4c3c(=O)n(Cc3ccon3)c(=O)n4C)n2)cc1C(F)(F)F [Compound 136, (S)-2-(1-(isoxazol-3-ylmethyl)-3-methyl-2,6-dioxo-2,3-dihydro-1H-purin-7(6H)-yl)-N-(6′-methyl-5′-(trifluoromethyl)-[2,3′-bipyridin]-6-yl)propanamide]
13 nM | Cc1cc(-c2cncc(NC(=O)[C@H](C)n3cnc4c3c(=O)n(Cc3ccon3)c(=O)n4C)n2)cnc1C(F)(F)F [Compound 137, (S)-2-(1-(isoxazol-3-ylmethyl)-3-methyl-2,6-dioxo-2,3-dihydro-1H-purin-7(6H)-yl)-N-(6-(5-methyl-6-(trifluoromethyl)pyridin-3-yl)pyrazin-2-yl)propanamide]
11 nM | Cc1cc(Cn2c(=O)c3c(ncn3[C@@H](C)C(=O)Nc3cncc(-c4cnc(C)c(Cl)c4)n3)n(C)c2=O)no1 [Compound 139, (S)—N-(6-(5-chloro-6-methylpyridin-3-yl)pyrazin-2-yl)-2-(3-methyl-1-((5-methylisoxazol-3-yl)methyl)-2,6-dioxo-2,3-dihydro-1H-purin-7(6H)-yl)propanamide]
32 nM | CC(=O)Cn1c(=O)c2c(ncn2[C@@H](C)C(=O)Nc2cncc(-c3cnc(C)c(Cl)c3)n2)n(C)c1=O [Compound 140, (S)—N-(6-(5-chloro-6-methylpyridin-3-yl)pyrazin-2-yl)-2-(3-methyl-2,6-dioxo-1(2-oxopropyl)-2,3-dihydro-1H-purin-7(6H)-yl)propanamide]
80 nM | CC(C(=O)Nc1ccnc(-c2cnc(C(F)(F)F)nc2)n1)n1cnc2c1c(=O)n(Cc1ccccn1)c(=O)n2C (stereo not shown) [Compound 141, 2-(3-methyl-2,6-dioxo-1-(pyridin-2-ylmethyl)-2,3-dihydro-1H-purin-7(6H)-yl)-N-(2′(trifluoromethyl)-2,5′-bipyrimidin-4-yl)propanamide]
7 nM | CC(=O)Cn1c(=O)c2c(ncn2[C@@H](C)C(=O)Nc2cccc(-c3cnc(N4CC5CC5C4)nc3)n2)n(C)c1=O (stereo partly drawn) [Compound 142, (2S)—N-(6-(2-(3-azabicyclo[3.1.0]hexan-3-yl)pyrimidin-5-yl)pyridin-2-yl)-2-(3-methyl-2,6-dioxo-1-(2-oxopropyl)-2,3-dihydro-1H-purin-7(6H)-yl)propanamide]
20 nM | CC(=O)Cn1c(=O)c2c(ncn2[C@@H](C)C(=O)Nc2ccnc(-c3cnc(N4CC5CC5C4)nc3)n2)n(C)c1=O (stereo partly drawn) [Compound 143, (2S)—N-(2′-(3-azabicyclo[3.1.0]hexan-3-yl)-2,5′-bipyrimidin-4-yl)-2-(3-methyl-2,6-dioxo-1-(2-oxopropyl)-2,3-dihydro-1H-purin-7(6H)-yl)propanamide]
2 nM | CC#CCn1c(=O)c2c(ncn2[C@@H](C)C(=O)Nc2csc(-c3cnc(N4CC5CC5C4)nc3)n2)n(C)c1=O (stereo partly drawn) [Compound 145, (2S)—N-(2-(2-(3-azabicyclo[3.1.0]hexan-3-yl)pyrimidin-5-yl)thiazol-4-yl)-2-(1-(but-2-ynyl)-3-methyl-2,6-dioxo-2,3-dihydro-1H-purin-7(6H)-yl)propanamide]
